Our source for the absorption maximum values is the Deep4Chem optical property database.

The data set can be described thus: solvent given as SMILES.

Turning to `CN(C)c1nc(N)c2nc(C#N)n(Cc3ccccc3)c2n1`, the absorption maximum reads like this: (in C1COCCO1) 339 nm; (in CC#N) 338 nm; (in CO) 338 nm; (in ClCCl) 336 nm.
Consider `C[Si](C)(C)c1ccc(C#N)c2ccccc12`, for which the absorption maximum (in C1CCCCC1) is 315 nm.
In the case of `Cc1ccc2c(c1)C(=O)c1ccncc1-2`, the absorption maximum reads like this: (in CC#N) 408.95 nm; (in CCCCCC) 408.95 nm.
Where the note is “in CCO”, `CN(C)c1ccc2c(-c3ccc(Br)cc3)c3ccc(=[N+](C)C)cc-3oc2c1` gave an absorption maximum of 556 nm.
For the setting “in CC#N”, `Oc1ccc2ccccc2c1/C=N/c1cc2ccccc2cc1/N=C/c1c(O)ccc2ccccc12` came in with an absorption maximum of 474 nm.
For the compound `c1cc2ccc3[nH]c4ccc5cccc6c(c1)c2c3c4c56`, the absorption maximum (in ClC(Cl)Cl) was 425 nm.
Under “in ClCCl”, `COCCOCCOCN1C(=O)c2ccc3c(-c4ccccc4)c4c5ccc6c7c(ccc(c(-c8ccccc8)c4c4ccc(c2c34)C1=O)c75)C(=O)N(COCCOCCOC)C6=O` yielded an absorption maximum of 630 nm.
With `CCn1c2ccccc2c2cc(/C=C3\C(=O)c4ccccc4S3(=O)=O)ccc21`, the absorption maximum is, setting by setting: (in C1CCOC1) 446 nm; (in C1COCCO1) 443 nm; (in CC#N) 442 nm; (in CC(C)=O) 442 nm; (in CCOC(C)=O) 441 nm; (in CN(C)C=O) 449 nm. Besides, the absorption maximum is, setting by setting: (in CO) 446 nm; (in CS(C)=O) 454 nm; (in Cc1ccccc1) 453 nm; (in ClC(Cl)Cl) 454 nm; (in ClCCl) 448 nm.
For `Cc1cc(C)c(-c2nnc(-c3ccc(-n4c5ccccc5c5ccccc54)c(C)c3)o2)c(C)c1`, for the setting “in Cc1ccccc1”, the absorption maximum was 339 nm.
As to `CC1=CC(c2ccc3ccccc3c2)=[O+][B-]2(OC(=O)C(=O)O2)O1`, the absorption maximum is reported as 400 nm (in CC#N) and 400 nm (in ClC(Cl)(Cl)Cl).
With `CCn1c2ccccc2c2cc(C#Cc3cc(C#Cc4ccc5c(c4)c4ccccc4n5CC)nc(N4CCCCC4)n3)ccc21`, the absorption maximum reads like this: (in C1CCOC1) 393 nm; (in CCOC(C)=O) 391 nm; (in CN(C)C=O) 398 nm; (in Cc1ccccc1) 395 nm; (in ClCCl) 397 nm.
For the setting “in ClCCl”, `CC(C)(C)c1ccc2c(c1)c1cc(C(C)(C)C)ccc1n2-c1ccc(C#Cc2ccc3c4ccc(C#Cc5ccc(C=O)cc5)cc4n(-c4ccc(C(F)(F)F)cc4)c3c2)cc1` had an absorption maximum of 377 nm.
As to `c1ccc(-c2cc3cccc[n+]3[b-]3ccc(-c4cc[b-]5c(c4)c(-c4ccccc4)cc4cccc[n+]54)cc32)cc1`, for the setting “in C1CCCCC1”, the absorption maximum is 517 nm.
In the case of `CCN(CC)c1ccc2cc(/C=C/C3=C4CC/C(=C\c5cc6ccc(N(CC)CC)cc6oc5=O)C4=[O+][B-](F)(F)O3)c(=O)oc2c1`, the absorption maximum came to 629 nm (in C1COCCO1); 655 nm (in CC#N); 653 nm (in CC(C)=O); 636 nm (in CCOC(C)=O); 673 nm (in CN(C)C=O); 690 nm (in CS(C)=O). For the same compound, the absorption maximum (in Cc1ccccc1) is 629 nm, the absorption maximum (in ClC(Cl)Cl) came out at 644 nm and the absorption maximum (in ClCCl) is given as 653 nm.
On to `CCN(CC)c1ccc(-c2ccc(-c3nc(C#N)c4ccccc4n3)s2)cc1`, for which the absorption maximum amounted to 397 nm (in CC#N) and 402 nm (in Cc1ccccc1).
On to `CC1=N/C(=C\c2cc(N(C)C)ccc2C#N)C(=O)N1C`, for which the absorption maximum (in C1CCOC1) stood at 363 nm, the absorption maximum (in CC#N) is 361 nm and the absorption maximum (in CCCCCC) was found to be 359 nm.
With `F[B-]1(F)n2cccc2C(c2ccccc2)=C2C=CC=[N+]21`, the absorption maximum is 503 nm (in Cc1ccccc1) and 500 nm (in ClCCl).
`COCCC1=Cc2nc1ccc1[nH]c(cc1CCOC)c1nc(ccc3[nH]c2cc3CCOC)C(CCOC)=C1` had an absorption maximum (in Cc1ccccc1) of 638 nm.
On to `CCN(C(C)=O)c1cc2c(cc1C)C(c1ccccc1C(=O)O)=C1CCCC(/C=C/C3=[N+](C)c4ccccc4C3(C)C)=C1O2`, for which the absorption maximum (in CCO) worked out at 656 nm.
On to `COc1cc(-c2nnc(-c3ccc4ccc5cccc6ccc3c4c56)o2)cc(OC)c1OC`, for which the absorption maximum reads like this: (in C1CCOC1) 393 nm; (in CC1CCCCC1) 392 nm; (in CC#N) 391 nm; (in CCCCCC) 392 nm; (in Cc1ccccc1) 396 nm; (in ClC(Cl)Cl) 396 nm.
In turn, `Cc1ccc(-c2c3nc(c(-c4ccc(C)cc4)c4ccc([nH]4)c(-c4ccc(C)cc4)c4nc(c(-c5ccc(C)cc5)c5ccc2[nH]5)C=C4N2CCOCC2)C=C3)cc1` returned an absorption maximum (in CS(C)=O) of 653 nm.
In the case of `O=C1[C@@H]2[C@H](C(=O)N1c1ccc3cc4ccccc4cc3c1)[C@@H]1C=C[C@H]2C1`, the absorption maximum (in ClC(Cl)Cl) turned out to be 380 nm.
Consider `Cc1cc(=O)oc2cc(-c3cn(Cc4ccccc4)nn3)ccc12`, for which the absorption maximum (in CCO) came out at 329 nm.
As for `N#CC1=CC(Br)=CC(C#N)=P1(c1ccccc1)c1ccccc1`, the absorption maximum (in ClC(Cl)Cl) is on record as 482 nm.
With `CC1=[N+]2C(=c3c4c5ccccc5cc5cccc(c6cc(C)n(c36)[B-]2(F)F)c54)C=C1`, the absorption maximum runs as follows: (in C1CCOC1) 584 nm; (in CCCCCC) 583 nm; (in CO) 583 nm; (in CS(C)=O) 587 nm; (in ClC(Cl)Cl) 584 nm; (in ClCCl) 583 nm.
For `Cn1cc(-c2nc3ccccc3nc2/C=C/N2CCCC2)c2ccccc21`, the absorption maximum (in CC#N) came out at 440 nm.
`CC1=C(C)C(c2c(C)c(C)c3n2[B-](F)(F)[N+]2=C(C)C(C)=C(C)C2=C3)=[N+]2C1=Cc1c(C)c(C)c(C)n1[B-]2(F)F` displayed an absorption maximum (in ClCCl) of 562 nm.
As for `CC1=CC2=Nc3nc(C)[n+](C)cc3CN2C=C1`, the absorption maximum is 403 nm (in CC#N), 398 nm (in CCO) and 392 nm (in O).
`Cc1cc(-c2nc(-c3ccccc3)nc(-c3ccccc3)n2)ccc1-n1c2ccccc2c2cc3c(cc21)C1c2ccccc2C3c2ccccc21` had an absorption maximum (in Cc1ccccc1) of 364 nm.
`COc1ccc2c(c1)N(c1ccc(C)cc1)c1cc3c(cc1=N2)Oc1c(cc(C(C)(C)C)cc1C(C)(C)C)N=3` gave an absorption maximum (in CC#N) of 540 nm, an absorption maximum (in CCCCCC) of 562 nm and an absorption maximum (in CO) of 555 nm.
Under “in CO”, `C#CCOc1ccc(/C=C/C2=[N+]3C(=C(c4ccccc4)c4c(C)cc(C)n4[B-]3(F)F)C(C)=C2)cc1` registered an absorption maximum of 563 nm.
For the compound `Cc1ccc(/N=C2\N=C(N)c3cccc4cccc2c34)cc1`, the absorption maximum (in ClCCl) is recorded as 349 nm.
On to `CN(C)c1ccc(C2=Cc3cc(Cl)nc[n+]3[B-](F)(F)O2)cc1`, for which the absorption maximum came out at 451 nm (in C1CCOC1); 452 nm (in CC#N); 444 nm (in CCCCCC); 453 nm (in Cc1ccccc1); 460 nm (in ClC(Cl)Cl); 459 nm (in ClCCl).
`CCCC1(CCC)c2ccccc2-c2ccccc21`: the absorption maximum (in C1CCCCC1) worked out at 304 nm.
`COC(=O)c1ccc(/C=C2\N=C(c3ccc([N+](=O)[O-])cc3)NC2=O)cc1` gave an absorption maximum (in C1COCCO1) of 405 nm.
